ChEMBL document CHEMBL1155657, “Triterpene glycosides from the Far-Eastern sea cucumber Pentamera calcigera. 1. Monosulfated glycosides and cytotoxicity of their unsulfated derivatives” (J Nat Prod, 2000)

What was measured:
Assay type in all cases: functional, cell-based
A549 = assay: Cytotoxicity against human A549 cells
[1] = Cytotoxicity against human MEL-28 cells; conditions: SK-MEL-28
HT-29 = assay: Cytotoxicity against human HT29 cells
P388 = assay: Cytotoxicity against mouse P388 cells

Measured: IC50

C=C(C)[C@H]1[C@@H]2C[C@@]3(C)C4=CC[C@H]5C(C)(C)[C@@H](O[C@@H]6OC[C@@H](O)[C@H](O)[C@H]6O[C@@H]6O[C@H](C)[C@@H](O[C@@H]7O[C@H](CO)[C@@H](O)[C@H](O[C@@H]8OC[C@@H](O)[C@H](OC)[C@H]8O)[C@H]7O)[C@H](O)[C@H]6O[C@@H]6O[C@H](C)[C@@H](O)[C@H](O)[C@H]6O)CC[C@]5(C)[C@@H]4CC[C@]13C(=O)O2
5 µg/mL: A549 | [1] | HT-29 | P388

C=C(C)[C@H]1[C@@H]2C[C@@]3(C)C4=CC[C@H]5C(C)(C)[C@@H](O[C@@H]6OC[C@@H](O)[C@H](O)[C@H]6O[C@@H]6O[C@H](C)[C@@H](O[C@@H]7O[C@H](CO)[C@@H](O)[C@H](O[C@@H]8OC[C@@H](O)[C@H](OC)[C@H]8O)[C@H]7O)[C@H](O)[C@H]6O[C@@H]6O[C@H](CO)[C@@H](O)[C@H](O)[C@H]6O)CC[C@]5(C)[C@@H]4CC[C@]13C(=O)O2
5 µg/mL: A549 | [1] | HT-29 | P388
